In patent publication US8501446B2 (Vertex Pharmaceuticals Incorporated, priority 2004, dated 2013):

Tests used:
JAK3 = biological target: T1, JAK3 (Homo sapiens, UniProt P52333); assay: JAK3 inhibition assay (standard radioactive enzyme assay); type: biochemical; conditions: average Ki if more than one value determined
T1 sequence (P52333 1-1124): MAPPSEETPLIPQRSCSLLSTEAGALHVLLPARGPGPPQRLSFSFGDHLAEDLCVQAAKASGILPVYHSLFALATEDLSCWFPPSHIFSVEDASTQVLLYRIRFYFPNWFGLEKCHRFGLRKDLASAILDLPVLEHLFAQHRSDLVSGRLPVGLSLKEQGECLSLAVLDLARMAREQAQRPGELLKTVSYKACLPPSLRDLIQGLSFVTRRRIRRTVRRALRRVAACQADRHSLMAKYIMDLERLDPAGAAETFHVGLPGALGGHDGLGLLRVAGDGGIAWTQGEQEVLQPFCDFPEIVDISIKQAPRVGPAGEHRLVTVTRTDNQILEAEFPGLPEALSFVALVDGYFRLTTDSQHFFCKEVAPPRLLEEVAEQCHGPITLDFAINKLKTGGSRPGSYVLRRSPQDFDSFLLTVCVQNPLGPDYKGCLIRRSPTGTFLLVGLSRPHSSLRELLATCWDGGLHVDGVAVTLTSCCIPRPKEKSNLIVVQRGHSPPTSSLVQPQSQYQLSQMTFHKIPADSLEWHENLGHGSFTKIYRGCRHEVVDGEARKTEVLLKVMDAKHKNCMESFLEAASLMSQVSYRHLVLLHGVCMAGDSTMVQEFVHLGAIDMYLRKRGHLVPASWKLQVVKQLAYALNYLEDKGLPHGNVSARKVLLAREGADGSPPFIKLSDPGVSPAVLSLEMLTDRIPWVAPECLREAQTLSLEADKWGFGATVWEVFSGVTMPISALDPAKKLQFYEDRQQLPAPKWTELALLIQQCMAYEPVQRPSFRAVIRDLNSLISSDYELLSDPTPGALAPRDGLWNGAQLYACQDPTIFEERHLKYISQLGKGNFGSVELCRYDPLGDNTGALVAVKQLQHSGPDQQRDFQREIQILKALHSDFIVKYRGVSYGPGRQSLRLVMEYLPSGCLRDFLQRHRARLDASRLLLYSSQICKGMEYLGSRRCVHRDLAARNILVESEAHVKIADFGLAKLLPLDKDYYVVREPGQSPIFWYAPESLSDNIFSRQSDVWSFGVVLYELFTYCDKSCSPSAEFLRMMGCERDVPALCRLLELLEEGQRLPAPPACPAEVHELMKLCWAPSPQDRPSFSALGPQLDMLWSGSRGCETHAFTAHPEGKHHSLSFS

ROCK I (AA 6-553) = biological target: T2, ROCK I (AA 6-553) (Homo sapiens, UniProt Q13464); assay: ROCK inhibition assay, standard coupled enzyme system ("Enzyme"); type: biochemical; conditions: enzyme-linked assay
T2 construct: ROCK I (AA 6-553)
Summary of the method: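 ROCK I (AA 6-553) at 45 nM and 30 °C with 45 μM ATP and 200 μM peptide, in 100 mM HEPES pH 7.5, 10 mM MgCl2, 25 mM NaCl, 2 mM DTT, 1.5% DMSO. ADP output read by a PK/LDH coupled system: 2.5 mM PEP, 350 μM NADH, 30 μg/ml PK, 10 μg/ml LDH.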

T2 sequence (Q13464 6-553, species assumed): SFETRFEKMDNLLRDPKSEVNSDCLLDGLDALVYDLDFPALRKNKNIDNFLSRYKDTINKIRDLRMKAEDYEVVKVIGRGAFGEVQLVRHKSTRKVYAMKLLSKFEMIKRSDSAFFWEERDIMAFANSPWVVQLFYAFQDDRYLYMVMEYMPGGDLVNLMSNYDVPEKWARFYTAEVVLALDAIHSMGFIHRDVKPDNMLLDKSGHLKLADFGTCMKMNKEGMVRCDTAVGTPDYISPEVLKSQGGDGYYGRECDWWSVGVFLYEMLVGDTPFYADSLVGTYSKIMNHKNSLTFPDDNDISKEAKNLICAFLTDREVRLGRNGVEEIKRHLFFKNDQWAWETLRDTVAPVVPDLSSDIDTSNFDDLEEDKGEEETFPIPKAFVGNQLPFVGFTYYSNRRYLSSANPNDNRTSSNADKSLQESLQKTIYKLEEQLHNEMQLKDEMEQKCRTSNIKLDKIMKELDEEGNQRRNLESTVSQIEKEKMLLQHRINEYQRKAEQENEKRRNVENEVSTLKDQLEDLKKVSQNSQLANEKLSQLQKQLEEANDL

| SMILES | Ki (JAK3) [nM] | Ki (ROCK I (AA 6-553)) [nM] |
| --- | --- | --- |
| C[C@H](Nc1cccc(-c2c[nH]c3ncc(Cl)cc23)n1)c1ccc(F)cc1 [Compound 395] | < 500 | 500 to 5000 |
| CC(=O)N1[C@H](C)CN(c2cccc(-c3c[nH]c4ncc(Cl)cc34)n2)C[C@@H]1C [Compound 19] | < 500 | < 500 |
| CCOC(=O)N1CCCN(c2nccc(-c3c[nH]c4ncc(OC)cc34)n2)CC1 [Compound 33] | < 500 | < 500 |
| C[C@H](Nc1nc(-c2c[nH]c3ncc(Cl)cc23)ncc1F)C(=O)NCC(F)(F)F [Compound 369] | < 500 | 500 to 5000 |
| COC(=O)c1cnc2[nH]cc(-c3cccc(N4C[C@@H](C)N(C(C)=O)[C@@H](C)C4)n3)c2c1 [Compound 35] | < 500 | < 500 |
| COc1cnc2[nH]cc(-c3cccc(N4C[C@@H](C)N(C(C)=O)[C@@H](C)C4)n3)c2c1 [Compound 18] | < 500 | 500 to 5000 |
